{
  "source": "patent US10603335B2",
  "about": "“Cancer treatment combination compositions, methods and uses” (Board of Supervisors of Louisiana State University and …, priority 2016, dated 2020)",
  "key": {"[1]": {"tested_on": "TGFβ pathway genes in PATC53 pancreatic cancer cells", "test": "Quantitative PCR of TGFβ pathway genes, PATC53", "assay_type": "cell-based", "conditions": "TGFβ 100 ng/ml, LHRH-curcumin 20 μM and 50 μM", "method": "GAPDH was used as a reference.\nmRNA levels of Smad3, SNAI1, SNAI2, TGFBRI, TGFBRII, GADD45 and XIAP were determined by quantitative real-time PCR using the Roche Universal Library Probe protocol. Thermal cycling was carried out using the LightCycler96 system from Roche under the following conditions: 95° C. for 10 min and 40 cycles at 95° C. for 15 s and 55° C. for 60 s. mRNA expression for any given gene is represented as comparative to the control-treated cells. GAPDH was used as the housekeeping gene of reference."}, "PDAC PDXs tissue slices": {"tested_on": "PDAC PDXs tissue slices", "test": "Live Tissue Sensitivity Assay (LTSA), panel of PDAC PDXs", "assay_type": "cell-based", "conditions": "16 PDAC PDXs tested; single agent", "method": "Animal experiment protocol was reviewed and approved by The University of Texas MD Anderson Cancer Center (Houston, Tex.) institutional review board and in accordance with the Guidelines for the Care and Use of Laboratory Animals published by the National Institutes of Health. PDXs were grown from cryopreserved early passages of PDXs in nude mice as described in previous publications (Kim M P, et al, Nat Protoc 2009; 4(11): 1670-80). Briefly, tumor samples stored in CryoStor™ CS10 storage medium were recovered and cut into about 2 mm3 fragments, soaked in Matrigel, and implanted into the subcutaneous space of Balb/c nude mice (5 mice/PDX). Tumors were harvested when they reach 1.5 cm in diameter for generating tissue slices for drug testing with quadruplicates.\nAbout 100 tissue slices were produced from 1 tumorgraft with tissue slicer and arrayed in 96-well plates with previously established method (Roife D, et al, Clin Cancer Res 2016). […] Same volume of medium with 0.1% DMSO was added into control wells. After 72 hours, tissue viabilities were measured with PrestoBlue method. Viability inhibition will be calculated through normalization of viabilities of tissue slices treated with inhibitor against the viability of control (DMSO treated) slices. Inhibition of viability was further analyzed with t-test. […]"}, "[2]": {"conditions": "four mice treated with LHRH-curcumin twice a week (20 mg/kg)", "procedure": "Samples of tumor tissue were weighed, then pulverized using a Bessman Tissue Pulverizer cooled 3-5 minutes in liquid nitrogen. Resultant powder was then placed in glass homogenizing chamber, mixed in PBS to 20% solution, and crushed to produce final homogenate. 200 Ml aliquot of homogenate was dispensed in Axygen 2 mL clear microtube (Part #: MCT-200-C-S). Each sample was extracted with 1 mL 10% methanol/90% ethyl acetate, vortexed, and spun 30 minutes at 14,000 rpm in a cold room centrifuge. The upper organic phase layer was then removed and placed in separate microcentrifuge tubes. The procedure was repeated, and pooled tumor extracts were concentrated using a Savant SpeedVac. Samples were reconstituted in 100 μL of 1 mM ascorbic acidic MeOH (pH 4.6), mixed in a sonication bath for 2 minutes, and 75 μL were injected on-column. Reverse-phase HPLC (Agilent 1100 series) with a Thermo ODS Hypersil 5 μm 250 mm×4.6 mm analytical column (Part #: 30105-252130) operated at ambient temperature was used to quantify curcumin in tumor. The mobile phase was 0.1% TFA (Mobile A) and acetonitrile with 0.08% TFA (Mobile B). […] With all analyses performed at 0.5 mL/min flow rate and fluorescence detection at Ex 420 nm and Em 524 nm, curcumin eluted at about 16.5 minutes."}},
  "data": [
    {"smiles": "COc1cc(/C=C/C(=O)CC(=O)/C=C/c2ccc(OC(=O)CCCC(=O)NCCCC[C@@H](NC(=O)[C@H](Cc3ccc(O)cc3)NC(=O)[C@H](CO)NC(=O)[C@H](Cc3c[nH]c4ccccc34)NC(=O)[C@H](Cc3c[nH]cn3)NC(=O)[C@@H]3CCC(=O)N3)C(=O)N[C@@H](CC(C)C)C(=O)N[C@@H](CCCNC(=N)N)C(=O)N3CCC[C@H]3C(=O)NCC(N)=O)c(OC)c2)ccc1O", "note": "[LHRH-curcumin, [DLys6]-LHRH-Curcumin]", "values": [
      {"measurement": "mRNA levels of GADD45 and XIAP", "setting": "[1]", "result": "affected"},
      {"measurement": "mRNA levels of TGFβ signaling genes (SMAD3, SNAI1, SNAI2, TGFBRI, TGFBRII)", "setting": "[1]; 24 h and 48 h", "result": "down-regulated"},
      {"measurement": "number of PDXs sensitive", "setting": "PDAC PDXs tissue slices", "result": 8},
      {"measurement": "free curcumin in tumor tissue extract (HPLC peak at approximately 16.5 min)", "setting": "[2]", "result": "free curcumin present in the extract"}
    ]}
  ]
}
